The text below walks through data of ChEMBL document CHEMBL1759865, “Synthesis, biological assessment and molecular modeling of 14-aryl-10,11,12,14-tetrahydro-9H-benzo[5,6]chromeno[2,3-b]quinolin-13-amines” (Bioorg Med Chem Lett, 2011).

One experiment is filed under the species Bos taurus. Briefly: Inhibition of K(+)-induced intracellular Ca2+ uptake in bovine Chromaffin cells at 100 uM. The format is functional, cell-based.
Experiment [1] concerns the target T1, Acetylcholinesterase (Electrophorus electricus, UniProt O42275).
Description: Inhibition of Electrophorus electricus acetylcholinesterase preincubated with compound for 10 mins using acetylcholine iodide as substrate after 15 mins by spectrophotometric analysis
A further experiment deals with SH-SY5Y. The experiment is described as follows: Neuroprotective activity in human SH-SY5Y cells by MTT assay. The format is functional. (Tetrazolium dyes change colour on reduction, which living cells bring about.)
The next experiment concerns the target Cholinesterase (Equus caballus, UniProt P81908).
The target of experiment [2] is Acetylcholinesterase (Electrophorus electricus) (UniProt O42275). Briefly: Ratio of compound IC50 to tacrine IC50 for Electrophorus electricus acetylcholinesterase.
Experiment [3] has as its target T1, Acetylcholinesterase. The experiment is described as follows: Mixed inhibition of Electrophorus electricus acetylcholinesterase using […] substrate by Ellman's method. For orientation: In Ellman's method for cholinesterases, released thiocholine reacts with DTNB.
In experiment [4] the target is T2, Acetylcholinesterase (Bos taurus) (UniProt P23795).
T2 sequence (whole entry): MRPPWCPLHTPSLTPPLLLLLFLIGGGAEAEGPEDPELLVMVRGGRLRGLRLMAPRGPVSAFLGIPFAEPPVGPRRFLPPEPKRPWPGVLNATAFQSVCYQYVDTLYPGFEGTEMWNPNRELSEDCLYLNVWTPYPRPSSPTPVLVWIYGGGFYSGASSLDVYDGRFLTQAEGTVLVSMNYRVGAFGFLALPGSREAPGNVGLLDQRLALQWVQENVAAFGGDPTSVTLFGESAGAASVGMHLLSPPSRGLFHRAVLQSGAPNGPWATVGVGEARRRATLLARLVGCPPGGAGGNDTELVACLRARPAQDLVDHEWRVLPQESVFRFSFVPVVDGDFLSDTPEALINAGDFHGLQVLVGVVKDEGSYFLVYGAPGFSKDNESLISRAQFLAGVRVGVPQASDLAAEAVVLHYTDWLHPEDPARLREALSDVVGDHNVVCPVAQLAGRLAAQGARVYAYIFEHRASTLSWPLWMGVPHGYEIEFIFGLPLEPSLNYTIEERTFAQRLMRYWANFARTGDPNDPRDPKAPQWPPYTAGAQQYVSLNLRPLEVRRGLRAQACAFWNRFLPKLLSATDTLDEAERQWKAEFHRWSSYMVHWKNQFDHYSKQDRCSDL
The experiment is described as follows: Displacement of propidium iodide from peripheral anionic site of bovine erythrocyte AChE at 0.1 to 3 uM after 20 hrs by fluorescence plate reader.

The nature of experiment [5]: Inhibition of […]-induced intracellular Ca2+ uptake in bovine Chromaffin cells at 100 uM. In kind it is functional. The conditions noted are these: Bos taurus.

A word on the IC50: it is the concentration at which inhibition is half-maximal. Higher therefore signals weaker potency in that assay. By Ki is commonly meant a measure of affinity in units of concentration, obtained from inhibition or displacement. A higher Ki goes with weaker binding. By inhibition is commonly meant the relative decrease from the control value, in per cent. Read a high inhibition as a strong effect.

Structures are written as SMILES. Calls of active or inactive are those of the source. No cut-off for these calls is given here.

Chain of Cholinesterase (P81908 whole entry): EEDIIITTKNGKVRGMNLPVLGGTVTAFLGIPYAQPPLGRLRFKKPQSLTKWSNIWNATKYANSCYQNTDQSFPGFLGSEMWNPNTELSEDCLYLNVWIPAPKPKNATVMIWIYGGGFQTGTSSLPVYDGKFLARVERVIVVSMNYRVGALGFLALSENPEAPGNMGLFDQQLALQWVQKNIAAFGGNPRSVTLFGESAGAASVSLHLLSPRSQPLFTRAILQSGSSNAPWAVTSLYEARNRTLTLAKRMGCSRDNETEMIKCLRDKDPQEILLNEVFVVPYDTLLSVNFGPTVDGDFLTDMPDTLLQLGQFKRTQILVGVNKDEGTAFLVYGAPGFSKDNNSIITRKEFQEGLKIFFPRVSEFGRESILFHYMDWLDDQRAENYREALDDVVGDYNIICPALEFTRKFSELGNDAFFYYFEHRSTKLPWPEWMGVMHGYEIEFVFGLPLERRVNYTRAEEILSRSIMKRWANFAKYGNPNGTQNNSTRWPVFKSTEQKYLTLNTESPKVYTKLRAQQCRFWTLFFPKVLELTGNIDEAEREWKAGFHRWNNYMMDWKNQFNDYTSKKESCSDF
T1 sequence (O42275 whole entry): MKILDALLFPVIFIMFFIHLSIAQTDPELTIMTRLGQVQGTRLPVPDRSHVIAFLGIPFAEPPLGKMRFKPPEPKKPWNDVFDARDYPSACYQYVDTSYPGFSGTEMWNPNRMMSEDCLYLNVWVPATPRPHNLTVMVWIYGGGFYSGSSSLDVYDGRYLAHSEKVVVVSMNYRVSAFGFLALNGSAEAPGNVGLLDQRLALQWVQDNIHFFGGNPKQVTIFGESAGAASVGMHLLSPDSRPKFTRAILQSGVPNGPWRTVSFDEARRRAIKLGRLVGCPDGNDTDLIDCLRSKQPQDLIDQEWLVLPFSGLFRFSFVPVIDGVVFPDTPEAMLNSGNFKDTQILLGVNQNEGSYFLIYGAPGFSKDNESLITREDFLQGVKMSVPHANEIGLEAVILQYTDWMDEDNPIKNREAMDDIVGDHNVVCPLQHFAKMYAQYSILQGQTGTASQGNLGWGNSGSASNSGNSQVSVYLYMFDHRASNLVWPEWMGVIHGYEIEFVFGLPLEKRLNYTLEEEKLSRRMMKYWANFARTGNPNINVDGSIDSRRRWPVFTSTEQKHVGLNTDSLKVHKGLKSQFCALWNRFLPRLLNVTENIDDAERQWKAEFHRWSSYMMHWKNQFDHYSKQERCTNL
Chain of Acetylcholinesterase (Electrophorus electricus) (O42275 24-633 limits assumed): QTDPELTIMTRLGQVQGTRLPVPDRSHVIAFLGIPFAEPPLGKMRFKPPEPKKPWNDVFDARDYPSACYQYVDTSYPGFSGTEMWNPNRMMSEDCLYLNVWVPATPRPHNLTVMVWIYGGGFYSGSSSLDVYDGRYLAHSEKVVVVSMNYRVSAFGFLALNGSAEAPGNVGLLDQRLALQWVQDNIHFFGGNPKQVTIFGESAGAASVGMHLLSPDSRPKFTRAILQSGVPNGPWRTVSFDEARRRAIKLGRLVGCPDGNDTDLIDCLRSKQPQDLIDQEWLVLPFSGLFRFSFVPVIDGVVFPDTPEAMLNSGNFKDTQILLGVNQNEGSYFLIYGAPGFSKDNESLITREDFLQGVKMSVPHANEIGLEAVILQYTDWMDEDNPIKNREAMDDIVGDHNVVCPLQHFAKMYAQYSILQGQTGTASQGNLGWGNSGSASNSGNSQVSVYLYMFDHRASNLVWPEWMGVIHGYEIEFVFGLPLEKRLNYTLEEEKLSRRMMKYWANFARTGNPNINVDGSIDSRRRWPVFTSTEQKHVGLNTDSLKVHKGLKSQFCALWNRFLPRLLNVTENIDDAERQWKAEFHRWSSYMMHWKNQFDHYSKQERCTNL

Turning to `COc1cccc(C2c3c(nc4c(c3N)CCCC4)Oc3ccc4ccccc4c32)c1` (racemic), the outcome in the experiment filed under Bos taurus was inactive. The half-inhibitory concentration (IC50) was 16 nM at Acetylcholinesterase [1] and more than 10000 nM against Cholinesterase. In the experiment on SH-SY5Y, this compound had an Activity of less than 17%.

Consider `COc1cc(C2c3c(nc4c(c3N)CCCC4)Oc3ccc4ccccc4c32)ccc1O` (racemic), for which, in the experiment filed under Bos taurus, the result was inactive. Besides, the IC50 on Acetylcholinesterase [1] is 28 nM; against Cholinesterase, more than 10000 nM. The Activity in the experiment with SH-SY5Y is less than 17%.

On to `COc1ccccc1C1c2c(nc3c(c2N)CCCC3)Oc2ccc3ccccc3c21` (racemic), for which, in the experiment listed under Bos taurus, the outcome was inactive. The IC50 is 20 nM against Acetylcholinesterase [1] and more than 10000 nM against Cholinesterase. This compound displayed an Activity in the experiment on SH-SY5Y of less than 17%.

Consider `COc1ccc(C2c3c(nc4c(c3N)CCCC4)Oc3ccc4ccccc4c32)cc1` (racemic), for which the result in the experiment listed under Bos taurus was inactive. For the same compound, the 50% inhibitory concentration (IC50) was 18 nM against Acetylcholinesterase [1] and more than 10000 nM on Cholinesterase. Moreover, the Activity in the experiment on SH-SY5Y was less than 17%.

Regarding `Nc1c2c(nc3c1C(c1ccc(O)cc1)c1c(ccc4ccccc14)O3)CCCC2` (racemic), the outcome (in the experiment filed under Bos taurus; in experiment [4]) was inactive. For the same compound, the figures for the IC50 on Acetylcholinesterase [1] and on Cholinesterase were 7 nM and more than 10000 nM, respectively. Besides, the Ratio IC50 in experiment [2] came out at 4. In the experiment with SH-SY5Y, this compound came in with an Activity of less than 17%. This compound returned an inhibition constant (Ki) on Acetylcholinesterase [3] of 5 nM.

On to `COc1cc(C2c3c(nc4c(c3N)CCCC4)Oc3ccc4ccccc4c32)cc(OC)c1OC` (racemic), for which the outcome in the experiment filed under Bos taurus was inactive. The IC50 is 26 nM against Acetylcholinesterase [1] and more than 10000 nM against Cholinesterase. In the experiment with SH-SY5Y, this compound returned an Activity of less than 17%.

Consider `Nc1c2c(nc3c1C(c1ccc([N+](=O)[O-])cc1)c1c(ccc4ccccc14)O3)CCCC2` (racemic), for which the result in the experiment listed under Bos taurus was inactive. In addition, the IC50 against Acetylcholinesterase [1] was 170 nM; on Cholinesterase it was more than 10000 nM. In the experiment on SH-SY5Y, the Activity is less than 17%.

For the compound `COc1cc(C2c3c(nc4c(c3N)CCC4)Oc3ccc4ccccc4c32)ccc1O` (racemic), the result in the experiment filed under Bos taurus was inactive. Further, the IC50 was 101 nM against Acetylcholinesterase [1] and more than 10000 nM on Cholinesterase. In the experiment on SH-SY5Y, this compound returned an Activity of less than 17%.

In the case of `CCOC(=O)C1=C(C)Oc2nc3c(c(N)c2C1c1ccc(OC)cc1)CCCC3` (centres undefined), the inhibition at 100 µM in experiment [5] is 90%.

With `COc1ccc(C2c3c(nc4c(c3N)CCCC4)Oc3ccc4ccccc4c32)cc1OC` (racemic), the outcome in the experiment listed under Bos taurus was inactive. Besides, the IC50 at Acetylcholinesterase [1] was 26 nM; against Cholinesterase, more than 10000 nM. This compound had an Activity with SH-SY5Y of less than 17%.

In the case of `Cc1ccc(C2c3c(nc4c(c3N)CCCC4)Oc3ccc4ccccc4c32)cc1` (racemic), the result in the experiment listed under Bos taurus was inactive. In addition, the results for the half-maximal inhibitory concentration (IC50) against Acetylcholinesterase [1] and on Cholinesterase were 43 nM and more than 10000 nM, respectively. Further, the Activity in the experiment with SH-SY5Y is less than 17%.
